Source: ChEMBL document CHEMBL1143401, “New small-molecule synthetic antimycobacterials” (Antimicrob Agents Chemother, 2005)
In brackets after ≈: the same amount, converted by molar mass.

Legend:
[1] = tested on: Mycobacterium tuberculosis; assay: Antimycobacterial activity against Mycobacterium tuberculosis; type: functional
[2] = Selectivity index, ratio of MIC for Mycobacterium tuberculosis to cytotoxicity to african green monkey Vero cells; type: functional
[3] = Toxicity assessed as haemolysis in RBC; type: cell-based, Erythrocyte; conditions: red blood cells (RBC); read-out: LD50 (the source's name)
[4] = tested on: Mycobacterium tuberculosis; assay: Antimycobacterial activity against Mycobacterium tuberculosis H37Ra; type: functional
[5] = tested on: Mycobacterium tuberculosis; assay: Antimycobacterial activity against Mycobacterium tuberculosis H37Rv; type: functional
[6] = Selectivity index, ratio of MIC for Mycobacterium tuberculosis to cytotoxicity to […] V79 cells; type: functional
[7] = target: T1, Enoyl-[acyl-carrier-protein] reductase [NADH] (Mycobacterium tuberculosis) (UniProt P9WGR1); assay: Inhibition of Mycobacterium tuberculosis InhA at 40 uM
T1 sequence (whole entry): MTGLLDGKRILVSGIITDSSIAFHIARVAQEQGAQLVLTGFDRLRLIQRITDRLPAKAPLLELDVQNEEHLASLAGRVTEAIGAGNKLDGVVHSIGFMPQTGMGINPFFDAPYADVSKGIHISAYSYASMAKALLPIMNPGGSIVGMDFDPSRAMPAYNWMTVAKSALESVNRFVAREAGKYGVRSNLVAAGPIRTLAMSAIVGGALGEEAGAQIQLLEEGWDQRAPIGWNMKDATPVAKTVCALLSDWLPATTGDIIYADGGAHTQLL

[8] = target: T2, Cell division protein FtsZ (Mycobacterium tuberculosis) (UniProt P9WN95); assay: Inhibition of Mycobacterium tuberculosis FtsZ
T2 sequence (whole entry): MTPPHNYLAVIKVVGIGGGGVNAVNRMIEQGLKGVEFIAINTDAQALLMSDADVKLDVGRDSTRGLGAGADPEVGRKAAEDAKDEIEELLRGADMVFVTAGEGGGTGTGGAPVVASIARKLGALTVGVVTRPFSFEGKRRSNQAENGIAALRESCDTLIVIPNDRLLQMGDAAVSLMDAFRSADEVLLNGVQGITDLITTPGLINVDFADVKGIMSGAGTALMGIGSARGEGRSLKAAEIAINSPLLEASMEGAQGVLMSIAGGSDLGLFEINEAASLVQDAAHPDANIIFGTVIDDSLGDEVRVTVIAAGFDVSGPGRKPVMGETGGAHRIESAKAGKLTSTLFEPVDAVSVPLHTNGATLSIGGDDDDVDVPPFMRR

Row | SMILES | MIC [1] | also measured
1 | CCCCCCCCCCCCCCCCN[C@H](CC(=O)OCC)[C@@H]1O[C@@H]2OC(C)(C)O[C@@H]2C1OC (stereo partly drawn) | 3.12 µg/mL (≈ 6.07 µM) | 
2 | OC12CCCC(C1)SC(c1ccccc1)=N2 (stereo not drawn) | ≤ 6.25 µg/mL | 
3 | COC(=O)c1ccccc1S(=O)(=O)NC(=O)Nc1nc(C)cc(C)n1 [SULFOMETURON METHYL] | 0.3 µg/mL (≈ 0.823 µM) | 
4 | CC1(C)O[C@H]2OC(COCC(O)CNCCCCCCCCCCCCNCC(O)COCC3O[C@@H]4OC(C)(C)O[C@@H]4[C@H]4OC(C)(C)O[C@@H]34)[C@@H]3OC(C)(C)O[C@@H]3[C@H]2O1 (stereo partly drawn) | 1.56 µg/mL (≈ 1.87 µM) | 
5 | CCCCCCCCCCS(=O)(=O)CC(N)=O | 0.75 µg/mL (≈ 2.85 µM) | 
6 | Cc1ccc2nc(SCc3cc([N+](=O)[O-])cc([N+](=O)[O-])c3)[nH]c2c1 | 1.3 µg/mL (≈ 3.78 µM) | 
7 | CC(=O)NC[C@H]1CN(c2ccc(N3CCSCC3)c(F)c2)C(=O)O1 [SUTEZOLID] | ≤ 0.125 µg/mL | 
8 | CCCSc1nc(Cl)c(C#N)c(-c2ccc(F)cc2)n1 | 0.78 µg/mL (≈ 2.53 µM) | 
9 | O=C(Nc1ncccc1[N+](=O)[O-])c1c(O)cccc1Cl | < 1 µg/mL | 
10 | O=[N+]([O-])c1c[nH]cc1-c1ccc(Cl)cc1Cl | 1 µg/mL (≈ 3.89 µM) | 
11 | Cc1c(CN2CCN(C)CC2)cc(-c2ccc(Cl)cc2)n1-c1ccc(Cl)cc1 | 0.7 µg/mL (≈ 1.69 µM) | Selectivity Index [2]: 5.6
12 | c1ccc(-c2ccc(CNc3cccc(-c4c[nH]cn4)c3)cc2)cc1 | 4 µg/mL (≈ 12.3 µM) | Selectivity Index [2]: 16
13 | N#Cc1c(N2CCN(c3ccc([N+](=O)[O-])cc3)CC2)[n+]([O-])c2ccccc2[n+]1[O-] | 0.1 µg/mL (≈ 0.255 µM) | 
14 | O=[N+]([O-])c1cn2c(n1)OC[C@@H](OCc1ccc(OC(F)(F)F)cc1)C2 [PRETOMANID] | 0.13 µg/mL (≈ 0.362 µM) | 
15 | [H][C@@]12CC[C@H](C(C)CCC(N)=O)[C@@]1(C)CC[C@]1([H])[C@@]3(C)CC[C@]4(C[C@@]3([H])C[C@@H](OC(C)=O)[C@@]21[H])OOC1(CC[C@@H](C)CC1)OO4 (stereo partly drawn) | 3.12 µg/mL (≈ 5.42 µM) | 
16 | O=C(COc1cnccn1)N/N=c1\scc(-c2ccc(Br)cc2)n1-c1ccc(Cl)cc1[N+](=O)[O-] | 0.3 µg/mL (≈ 0.534 µM) | HC50 [3]: > 500 µg/mL
17 | CN(C)S(=O)(=O)n1cnc2c(=S)[nH]cnc21 | 0.78 µg/mL (≈ 3.01 µM) | 

Row | SMILES | MIC [1] | also measured
18 | CCCCOc1ccc2nc(C)cc(N/N=C/c3cccc4c(OC)cccc34)c2c1 | 0.78 µg/mL (≈ 1.89 µM) | 
19 | CC(=O)NCCCC[C@H](OC(C)=O)[C@@H](COC(C)=O)OC(C)=O | ≤ 6.25 µg/mL | 
20 | c1ccc(-c2ccc(CNc3ccc(CN4CCSCC4)cc3)cc2)cc1 | 0.5 µg/mL (≈ 1.33 µM) | 
21 | CC(C)c1ccc(-c2c(N)nnc3c2c2ccccc2n3C)cc1 | 1.42 µg/mL (≈ 4.49 µM) | 
22 | CCCCCCCCCCNC[C@H]1O[C@H](O[C@H]2O[C@H](CNCCCCCCCCCC)[C@@H](O)[C@H](O)[C@H]2O)[C@H](O)[C@@H](O)[C@@H]1O | 1.3 µg/mL (≈ 2.09 µM) | 
23 | CC(=O)/C(=C/C=C/[C@@H](OCc1ccccc1)[C@H](COCc1ccccc1)OCc1ccccc1)CCl | 3.1 µg/mL (≈ 6.14 µM) | 
24 | CN(C)C/C=C(\c1ccc(Br)cc1)c1ccc(-c2ccccc2)cc1 | 1.6 µg/mL (≈ 4.08 µM) | MIC [4]: 1.6 µg/mL (≈ 4.08 µM); MIC [5]: 1.6 µg/mL (≈ 4.08 µM); Selectivity Index [6]: <2
25 | COc1ccc(C(=O)Nc2ccc(C(=O)NN3C(=O)CSC3c3ccc(F)cc3)cc2)cc1 (stereo not drawn) | 6.25 µg/mL (≈ 13.4 µM) | 
26 | Clc1nc(C2CCCO2)c2ncn(Cc3ccccc3)c2n1 (stereo not drawn) | 0.78 µg/mL (≈ 2.48 µM) | Selectivity Index [2]: 10.6
27 | CC1Nc2nc(NC(=O)Oc3ccccc3)cc(N)c2N=C1c1ccccc1 (stereo not drawn) | 1.3 µg/mL (≈ 3.48 µM) | 
28 | NS#Cc1cc(SCc2ccccc2F)ccn1 | 1.2 µg/mL (≈ 4.31 µM) | 
29 | O=[N+]([O-])c1ccc(-c2cnn(-c3nccc(C(F)(F)F)n3)c2)c([N+](=O)[O-])c1 | 2.5 µg/mL (≈ 6.57 µM) | MIC [5]: 2.5 µg/mL (≈ 6.57 µM); inhibition [7]: 91%
30 | CCCCCCCCCCCCCCCCOCCCCOP(=O)(O)C[C@@H]1O[C@H](CO)[C@@H](O)[C@@H]1O | 3.13 µg/mL (≈ 5.97 µM) | 
31 | CCOC(=O)Nc1cc(NCCCCN(CC)CC)c2nc(-c3ccccc3)c(-c3ccccc3)nc2n1 | 0.15 µg/mL (≈ 0.293 µM) | ID50 [8]: 52 µM
32 | S=c1oc2c(Cl)cc(Cl)cc2c(=S)n1-c1cccc(Cl)c1 | 4 µg/mL (≈ 10.7 µM) | 
33 | COc1nc2ccc(Br)cc2cc1[C@@H](c1ccccc1)[C@@](O)(CCN(C)C)c1cccc2ccccc12 [BEDAQUILINE] | 0.03 µg/mL (≈ 0.054 µM) | 
